Data reported in article PMC2904477 (Biochemistry, 2010).

Legend:
[1] = target: T1, wild-type CB1 receptor (Homo sapiens, UniProt P21554); conditions: [3H]CP55940 saturation binding, mean ± SEM
[2] = target: T2, K402Q/R405Q/R409Q CB1 receptor (Homo sapiens, UniProt P21554, K402Q/R405Q/R409Q); conditions: [3H]CP55940 saturation binding, mean ± SEM
[3] = target: T3, L404A/F408A/F412A CB1 receptor (Homo sapiens, UniProt P21554, F408A/F412A/L404A); conditions: [3H]CP55940 saturation binding, mean ± SEM
T3 sequence (P21554 whole entry L404A/F408A/F412A): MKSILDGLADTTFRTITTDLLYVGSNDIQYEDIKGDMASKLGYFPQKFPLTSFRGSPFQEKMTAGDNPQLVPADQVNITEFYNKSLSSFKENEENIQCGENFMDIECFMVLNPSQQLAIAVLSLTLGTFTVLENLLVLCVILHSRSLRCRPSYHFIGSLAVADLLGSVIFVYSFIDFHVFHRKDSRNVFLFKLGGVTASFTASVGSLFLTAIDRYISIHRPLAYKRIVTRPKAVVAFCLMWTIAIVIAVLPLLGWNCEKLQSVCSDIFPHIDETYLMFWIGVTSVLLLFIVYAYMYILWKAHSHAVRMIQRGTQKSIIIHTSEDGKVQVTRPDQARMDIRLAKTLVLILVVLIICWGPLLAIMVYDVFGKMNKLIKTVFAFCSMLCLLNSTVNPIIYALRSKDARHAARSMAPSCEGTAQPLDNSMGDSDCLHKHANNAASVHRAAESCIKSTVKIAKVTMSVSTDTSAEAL

[4] = target: L404A CB1 receptor (Homo sapiens, UniProt P21554, L404A); conditions: [3H]CP55940 saturation binding
Chain of L404A CB1 receptor (P21554 whole entry L404A): as the sequence (P21554 whole entry L404A/F408A/F412A) above, with A408F, A412F counted along it

[5] = target: F408A CB1 receptor (Homo sapiens, UniProt P21554, F408A); conditions: [3H]CP55940 saturation binding
Chain of F408A CB1 receptor (P21554 whole entry F408A): as the sequence (P21554 whole entry L404A/F408A/F412A) above, with A404L, A412F counted along it

[6] = target: F412A CB1 receptor (Homo sapiens, UniProt P21554, F412A); conditions: [3H]CP55940 saturation binding
Chain of F412A CB1 receptor (P21554 whole entry F412A): as the sequence (P21554 whole entry L404A/F408A/F412A) above, with A404L, A408F counted along it

[7] = target: L404F/F408L CB1 receptor (Homo sapiens, UniProt P21554, F408L/L404F); conditions: [3H]CP55940 saturation binding
Chain of L404F/F408L CB1 receptor (P21554 whole entry L404F/F408L): as the sequence (P21554 whole entry L404A/F408A/F412A) above, with A404F, A408L, A412F counted along it

[8] = target: L404F/F412L CB1 receptor (Homo sapiens, UniProt P21554, F412L/L404F); conditions: [3H]CP55940 saturation binding
Chain of L404F/F412L CB1 receptor (P21554 whole entry L404F/F412L): as the sequence (P21554 whole entry L404A/F408A/F412A) above, with A404F, A408F, A412L counted along it

[9] = target: T1, wild-type CB1 receptor; conditions: CP55940 dose-response; wild-type receptor (reference)
[10] = target: T2, K402Q/R405Q/R409Q CB1 receptor; conditions: CP55940 dose-response, mean ± SEM
[11] = target: T3, L404A/F408A/F412A CB1 receptor; conditions: CP55940 dose-response, mean ± SEM

T2 sequence (P21554 whole entry K402Q/R405Q/R409Q): as the sequence (P21554 whole entry L404A/F408A/F412A) above, with K402Q, A404L, R405Q, A408F, R409Q, A412F counted along it
T1 sequence (P21554 whole entry): as the sequence (P21554 whole entry L404A/F408A/F412A) above, with A404L, A408F, A412F counted along it

## CCCCCCC(C)(C)c1ccc([C@@H]2C[C@H](O)CC[C@H]2CCCO)c(O)c1 [CP55940, (1R,3R,4R)-3-[2-hydroxy-4-(1,1-dimethylheptyl)phenyl]-4-(3-hydroxypropyl)cyclohexan-1-ol]
[1]
  Bmax: 3499 ± 129 fmol/mg
[2]
  Bmax: 3118 ± 142 fmol/mg
[3]
  Bmax: 867 ± 80 fmol/mg
[4]
  Bmax: 3158 ± 135 fmol/mg
[5]
  Bmax: 4133 ± 105 fmol/mg
[6]
  Bmax: 4062 ± 80 fmol/mg
[7]
  Bmax: 4523 ± 239 fmol/mg
[8]
  Bmax: 4531 ± 177 fmol/mg
[9]
  GTPγS Emax: 100.0 % WT
[10]
  GTPγS Emax: 80.6 ± 2.0 % WT
[11]
  GTPγS Emax: 14.4 ± 1.9 % WT
